Patent US10577363B2, “Substituted piperidine compounds” (EPIZYME, INC., priority 2014, dated 2020)

Target: SMYD3 (Homo sapiens (Human), UniProt Q9H7B4)
Assay: SMYD3 biochemical assay (SPA, 3H-SAM methylation of MEKK2 protein substrate)
Settings: read-out: SMYD3 Biochem IC50 (μM)*
In short: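 Tritium incorporation into GST-MEKK2 is counted by scintillation proximity after citric acid bead capture. Native human SMYD3 is preincubated with test compound for 30 min at room temperature at pH 8.0 (Tris-Cl, TCEP, BSG, Tween 20) before 3H-SAM and substrate are added; cold SAM at 100 uM final stops turnover.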

| IC50 [µM] | Structure (SMILES) |
| --- | --- |
| 9.29 | COCCS(=O)(=O)N1CC[C@@H](NC(=O)c2cc(C3CC3)on2)C[C@H]1C [compound 257, 5-cyclopropyl-N-((2R,4R)-1-((2-methoxyethyl)sulfonyl)-2-methylpiperidin-4-yl)isoxazole-3-carboxamide] |
| 8.37 | C[C@@H]1C[C@H](NC(=O)c2cc(C3CC3)on2)CCN1S(=O)(=O)CCC(F)(F)F [compound 258, 5-cyclopropyl-N-((2R,4R)-2-methyl-1-((3,3,3-trifluoropropyl)sulfonyl)piperidin-4-yl)isoxazole-3-carboxamide] |
| > 10 | COCCCS(=O)(=O)N1CC[C@@H](NC(=O)c2cc(C3CC3)on2)C[C@H]1C [compound 259, 5-cyclopropyl-N-((2R,4R)-1-((3-methoxypropyl)sulfonyl)-2-methylpiperidin-4-yl)isoxazole-3-carboxamide] |
| 2.45 | CCS(=O)(=O)N1CC[C@H](NC(=O)c2cc(C3CC3)on2)C[C@@H]1C [compound 260, 5-cyclopropyl-N-((2S,4S)-1-(ethylsulfonyl)-2-methylpiperidin-4-yl)isoxazole-3-carboxamide] |
| > 10 | CCS(=O)(=O)N1CC[C@@H](NC(=O)c2cc(C3CC3)on2)C[C@H]1C [compound 261, 5-cyclopropyl-N-((2R,4R)-1-(ethylsulfonyl)-2-methylpiperidin-4-yl)isoxazole-3-carboxamide] |
| > 10 | CCS(=O)(=O)N1CC[C@@H](NC(=O)c2cc(C3CC3)on2)C[C@@H]1C [compound 262, 5-cyclopropyl-N-((2S,4R)-1-(ethylsulfonyl)-2-methylpiperidin-4-yl)isoxazole-3-carboxamide] |
| 0.41 | C[C@@H]1CC(NC(=O)c2cc(C3CC3)on2)CCN1C(=O)CC1CCCC(N)C1 (stereo partly drawn) [compound 264, N-((2R)-1-(2-(3-aminocyclohexyl)acetyl)-2-methylpiperidin-4-yl)-5-cyclopropylisoxazole-3-carboxamide] |
| > 10 | C[C@H]1C[C@H](NC(=O)c2cc(C3CC3)on2)CCN1C(=O)CC1(CN)CCCCC1 [compound 266, N-((2S,4R)-1-(2-(1-(aminomethyl)cyclohexyl)acetyl)-2-methylpiperidin-4-yl)-5-cyclopropylisoxazole-3-carboxamide] |
| 8.52 | C[C@@H]1C[C@@H](NC(=O)c2cc(C3CC3)on2)CCN1C(=O)CC1(CN)CCCCC1 [compound 267, N-((2R,4S)-1-(2-(1-(aminomethyl)cyclohexyl)acetyl)-2-methylpiperidin-4-yl)-5-cyclopropylisoxazole-3-carboxamide] |
| 3.15 | C[C@@H]1C[C@@H](NC(=O)c2cc(C3CC3)on2)CCN1C(=O)CC(C)(C)CN [compound 268, N-((2R,4S)-1-(4-amino-3,3-dimethylbutanoyl)-2-methylpiperidin-4-yl)-5-cyclopropylisoxazole-3-carboxamide] |
| 7.83 | C[C@H]1C[C@H](NC(=O)c2cc(C3CC3)on2)CCN1C(=O)CCCCN [compound 273, N-((2S,4R)-1-(5-aminopentanoyl)-2-methylpiperidin-4-yl)-5-cyclopropylisoxazole-3-carboxamide] |
| 3.63 | C[C@H]1C[C@@H](NC(=O)c2cc(C3CC3)on2)CCN1S(=O)(=O)C1CC1 [compound 276, 5-cyclopropyl-N-((2S,4S)-1-(cyclopropylsulfonyl)-2-methylpiperidin-4-yl)isoxazole-3-carboxamide] |
| 0.654 | C[C@H]1C[C@@H](NC(=O)c2cc(C3CC3)on2)CCN1S(=O)(=O)N1CCCC1 [compound 277, 5-cyclopropyl-N-((2S,4S)-2-methyl-1-(pyrrolidin-1-ylsulfonyl)piperidin-4-yl)isoxazole-3-carboxamide] |
| 2.89 | CNS(=O)(=O)N1CC[C@H](NC(=O)c2cc(C3CC3)on2)C[C@@H]1C [compound 278, 5-cyclopropyl-N-((2S,4S)-2-methyl-1-(N-methylsulfamoyl)piperidin-4-yl)isoxazole-3-carboxamide] |
| 4.85 | COC(=O)CCS(=O)(=O)N1CC[C@H](NC(=O)c2cc(C3CC3)on2)C[C@@H]1C [compound 280, methyl 3-(((2S,4S)-4-(5-cyclopropylisoxazole-3-carboxamido)-2-methylpiperidin-1-yl)sulfonyl)propanoate] |
| 1.87 | COCCCS(=O)(=O)N1CC[C@H](NC(=O)c2cc(C3CC3)on2)C[C@@H]1C [compound 281, 5-cyclopropyl-N-((2S,4S)-1-((3-methoxypropyl)sulfonyl)-2-methylpiperidin-4-yl)isoxazole-3-carboxamide] |
| > 10 | COC(=O)CCS(=O)(=O)N1CC[C@H](NC(=O)c2cc(C3CC3)on2)C[C@H]1C [compound 282, methyl 3-(((2R,4S)-4-(5-cyclopropylisoxazole-3-carboxamido)-2-methylpiperidin-1-yl)sulfonyl)propanoate] |
| > 10 | COCCCS(=O)(=O)N1CC[C@H](NC(=O)c2cc(C3CC3)on2)C[C@H]1C [compound 284, 5-cyclopropyl-N-((2R,4S)-1-((3-methoxypropyl)sulfonyl)-2-methylpiperidin-4-yl)isoxazole-3-carboxamide] |

| IC50 [µM] | Structure (SMILES) |
| --- | --- |
| > 10 | CC(C)OCCS(=O)(=O)N1CC[C@H](NC(=O)c2cc(C3CC3)on2)C[C@H]1C [compound 285, 5-cyclopropyl-N-((2R,4S)-1-((2-isopropoxyethyl)sulfonyl)-2-methylpiperidin-4-yl)isoxazole-3-carboxamide] |
| > 10 | C[C@H]1C[C@H](NC(=O)c2cc(C3CC3)on2)CCN1S(=O)(=O)c1ccc(Cl)nc1 [compound 287, N-((2S,4R)-1-((6-chloropyridin-3-yl)sulfonyl)-2-methylpiperidin-4-yl)-5-cyclopropylisoxazole-3-carboxamide] |
| > 10 | C[C@H]1C[C@H](NC(=O)c2cc(C3CC3)on2)CCN1S(=O)(=O)N1CCCC1 [compound 288, 5-cyclopropyl-N-((2S,4R)-2-methyl-1-(pyrrolidin-1-ylsulfonyl)piperidin-4-yl)isoxazole-3-carboxamide] |
| > 10 | CNS(=O)(=O)N1CC[C@@H](NC(=O)c2cc(C3CC3)on2)C[C@@H]1C [compound 289, 5-cyclopropyl-N-((2S,4R)-2-methyl-1-(N-methylsulfamoyl)piperidin-4-yl)isoxazole-3-carboxamide] |
| > 10 | COC(=O)CCS(=O)(=O)N1CC[C@@H](NC(=O)c2cc(C3CC3)on2)C[C@@H]1C [compound 290, methyl 3-(((2S,4R)-4-(5-cyclopropylisoxazole-3-carboxamido)-2-methylpiperidin-1-yl)sulfonyl)propanoate] |
| > 10 | C[C@H]1C[C@H](NC(=O)c2cc(C3CC3)on2)CCN1S(=O)(=O)CCC(F)(F)F [compound 292, 5-cyclopropyl-N-((2S,4R)-2-methyl-1-((3,3,3-trifluoropropyl)sulfonyl)piperidin-4-yl)isoxazole-3-carboxamide] |
| 5.97 | CC(C)OCCS(=O)(=O)N1CC[C@@H](NC(=O)c2cc(C3CC3)on2)C[C@H]1C [compound 296, 5-cyclopropyl-N-((2R,4R)-1-((2-isopropoxyethyl)sulfonyl)-2-methylpiperidin-4-yl)isoxazole-3-carboxamide] |
| 1.8 | CC[C@@H]1CN(C(=O)CCCN)CC[C@@H]1NC(=O)c1cc(C2CC2)on1 [compound 297, N-((3R,4S)-1-(4-aminobutanoyl)-3-ethylpiperidin-4-yl)-5-cyclopropylisoxazole-3-carboxamide] |
| 6.1 | CC[C@@H]1CN(C(=O)CCCN)CC[C@H]1NC(=O)c1cc(C2CC2)on1 [compound 298, N-((3R,4R)-1-(4-aminobutanoyl)-3-ethylpiperidin-4-yl)-5-cyclopropylisoxazole-3-carboxamide] |
| 0.989 | CC[C@H]1CN(C(=O)CCCN)CC[C@H]1NC(=O)c1cc(C2CC2)on1 [compound 299, N-((3S,4R)-1-(4-aminobutanoyl)-3-ethylpiperidin-4-yl)-5-cyclopropylisoxazole-3-carboxamide] |
| 3.6 | CC[C@H]1CN(C(=O)CCCN)CC[C@@H]1NC(=O)c1cc(C2CC2)on1 [compound 300, N-((3S,4S)-1-(4-aminobutanoyl)-3-ethylpiperidin-4-yl)-5-cyclopropylisoxazole-3-carboxamide] |
| 6.47 | NCCCC(=O)N1CCC(NC(=O)c2cc(C3CC3)on2)CC12CCCCC2 (centres unmarked) [compound 301, N-(1-(4-aminobutanoyl)-1-azaspiro[5.5]undecan-4-yl)-5-cyclopropylisoxazole-3-carboxamide] |
| 6.93 | CC[C@@H]1CC(NC(=O)c2cc(C3CC3)on2)C[C@H](CC)N1C(=O)CCCN (stereo partly drawn) [compound 302, N-((2S,6R)-1-(4-aminobutanoyl)-2,6-diethylpiperidin-4-yl)-5-cyclopropylisoxazole-3-carboxamide] |
| 1.78 | CC1CN(C(=O)[C@H]2CC[C@H](N)CC2)CC(C)C1NC(=O)c1cc(C2CC2)on1 (some centres unmarked) [compound 303, N-(1-((1r,4r)-4-aminocyclohexane-1-carbonyl)-3,5-dimethylpiperidin-4-yl)-5-cyclopropylisoxazole-3-carboxamide] |
| 2.04 | N[C@H]1CC[C@H](C(=O)N2CCC(NC(=O)c3cc(C4CC4)on3)C(C(F)(F)F)C2)CC1 (some centres unmarked) [compound 304, N-(1-((1r,4r)-4-aminocyclohexane-1-carbonyl)-3-(trifluoromethyl)piperidin-4-yl)-5-cyclopropylisoxazole-3-carboxamide] |
| 1.17 | C[C@H](C(=O)N1CC[C@@H](NC(=O)c2cc(C3CC3)on2)C[C@H]1C)C1CCNCC1 [compound 305, 5-cyclopropyl-N-((2R,4R)-2-methyl-1-((S)-2-(piperidin-4-yl)propanoyl)piperidin-4-yl)isoxazole-3-carboxamide] |
| 0.852 | C[C@@H]1C[C@H](NC(=O)c2cc(C3CC3)on2)CCN1C(=O)[C@H](C)C1CCNCC1 [compound 306, 5-cyclopropyl-N-((2R,4R)-2-methyl-1-((R)-2-(piperidin-4-yl)propanoyl)piperidin-4-yl)isoxazole-3-carboxamide] |
